Test results taken from PubChem BioAssay AID2060490 (Molecular Pharmacology Branch, DTP, NCI, 2025).
Several values for one entry are separate records, joined by “and”; a condition that tells them apart may be missing. Equal values may be shown once.

Test system: 885512-296-R-J2-PDC complex spheroid viability
Assay: Anticancer human tumor 885512-296-R-J2-PDC patient-derived breast carcinoma cell line growth inhibition [GQUAD]
Details: for viability, T/C: stronger effect = lower value
In short: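 Multi-cell-type spheroids of tumor cells with HUVEC and mesenchymal stem cells, treated with drug combinations. Concentrations descend in half-log steps from near clinical Cmax, or from 10 microM where Cmax is unknown; viability read-out.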
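Note: spheroids exposed to the compounds for one week.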
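Throughout, for viability, T/C: percent of tumor spheroid viability relative to DMSO vehicle control wells.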

How did the IC50 (curve of first compound, second compound 0.0316 µM) turn out when Cn1ncnc1[C@H]1c2n[nH]c(=O)c3cc(F)cc(c23)N[C@@H]1c1ccc(F)cc1 + Cc1[nH]c2ccc(F)cc2c1-c1nc2c3cccnc3c3ncccc3c2[nH]1 was run?
The IC50 was 277 nM.

And the IC50 (curve of first compound, second compound 0.1 µM)?
The IC50 was 234 nM.

What about the IC50 (curve of first compound, second compound 0.316 µM) of the same compound?
Its IC50 is 220 nM.

What about the IC50 (curve of first compound, second compound 1 µM) of the same compound?
Its IC50 is 106 nM.

And the IC50 (curve of first compound, second compound 3.16 µM)?
The IC50 was under 0.999 nM.

What about the IC50 (curve of first compound, second compound 10 µM) of the same compound?
Its IC50 is under 0.999 nM.

And the viability, T/C (second compound 0.0316 µM, first compound 0.000999 µM)?
The viability, T/C was 108%.

What about the viability, T/C (second compound 0.0316 µM, first compound 0.00316 µM) of the same compound?
Its viability, T/C is 84.1%.

And the viability, T/C (second compound 0.0316 µM, first compound 0.00999 µM)?
The viability, T/C was 89.5%.

And the viability, T/C (second compound 0.0316 µM, first compound 0.0316 µM)?
The viability, T/C was 86.8%.

What about the viability, T/C (second compound 0.0316 µM, first compound 0.0999 µM) of the same compound?
The viability, T/C was 66.4%.

And the viability, T/C (second compound 0.0316 µM, first compound 0.316 µM)?
The viability, T/C was 46.8%.

And the viability, T/C (second compound 0.1 µM, first compound 0.000999 µM)?
The viability, T/C was 104%.

What about the viability, T/C (second compound 0.1 µM, first compound 0.00316 µM) of the same compound?
Its viability, T/C is 101%.

What about the viability, T/C (second compound 0.1 µM, first compound 0.00999 µM) of the same compound?
Its viability, T/C is 93.9%.

And the viability, T/C (second compound 0.1 µM, first compound 0.0316 µM)?
Its viability, T/C is 75.4%.

What about the viability, T/C (second compound 0.1 µM, first compound 0.0999 µM) of the same compound?
Its viability, T/C is 76.2%.

What about the viability, T/C (second compound 0.1 µM, first compound 0.316 µM) of the same compound?
The viability, T/C was 41.1%.

And the viability, T/C (second compound 0.316 µM, first compound 0.000999 µM)?
Its viability, T/C is 90.8%.

What about the viability, T/C (second compound 0.316 µM, first compound 0.00316 µM) of the same compound?
The viability, T/C was 82.9%.

What about the viability, T/C (second compound 0.316 µM, first compound 0.00999 µM) of the same compound?
The viability, T/C was 82.1%.

What about the viability, T/C (second compound 0.316 µM, first compound 0.0316 µM) of the same compound?
The viability, T/C was 77.3%.

What about the viability, T/C (second compound 0.316 µM, first compound 0.0999 µM) of the same compound?
Its viability, T/C is 67%.

And the viability, T/C (second compound 0.316 µM, first compound 0.316 µM)?
The viability, T/C was 42.1%.

What about the viability, T/C (second compound 1 µM, first compound 0.000999 µM) of the same compound?
Its viability, T/C is 70.8%.

What about the viability, T/C (second compound 1 µM, first compound 0.00316 µM) of the same compound?
The viability, T/C was 79.3%.

What about the viability, T/C (second compound 1 µM, first compound 0.00999 µM) of the same compound?
The viability, T/C was 67.6%.

And the viability, T/C (second compound 1 µM, first compound 0.0316 µM)?
The viability, T/C was 57.7%.

And the viability, T/C (second compound 1 µM, first compound 0.0999 µM)?
The viability, T/C was 53.6%.

And the viability, T/C (second compound 1 µM, first compound 0.316 µM)?
The viability, T/C was 34.6%.

And the viability, T/C (second compound 3.16 µM, first compound 0.000999 µM)?
Its viability, T/C is 25.6%.

What about the viability, T/C (second compound 3.16 µM, first compound 0.00316 µM) of the same compound?
Its viability, T/C is 23.2%.

What about the viability, T/C (second compound 3.16 µM, first compound 0.00999 µM) of the same compound?
The viability, T/C was 17.1%.

And the viability, T/C (second compound 3.16 µM, first compound 0.0316 µM)?
The viability, T/C was 15.6%.

What about the viability, T/C (second compound 3.16 µM, first compound 0.0999 µM) of the same compound?
The viability, T/C was 13.8%.

What about the viability, T/C (second compound 3.16 µM, first compound 0.316 µM) of the same compound?
The viability, T/C was 7.86%.

And the viability, T/C (second compound 10 µM, first compound 0.000999 µM)?
Its viability, T/C is 3.25%.

What about the viability, T/C (second compound 10 µM, first compound 0.00316 µM) of the same compound?
Its viability, T/C is 3.75%.

What about the viability, T/C (second compound 10 µM, first compound 0.00999 µM) of the same compound?
Its viability, T/C is 8.84%.

And the viability, T/C (second compound 10 µM, first compound 0.0316 µM)?
The viability, T/C was 2.56%.

What about the viability, T/C (second compound 10 µM, first compound 0.0999 µM) of the same compound?
Its viability, T/C is 2.53%.

What about the viability, T/C (second compound 10 µM, first compound 0.316 µM) of the same compound?
Its viability, T/C is 2.11%.

Nc1ccn(C2OC(CO)C(O)C2(F)F)c(=O)n1 (centres undefined) was tested. Which viability, T/C (compound 0.0316 µM) did it give?
Its viability, T/C is 14.6% and 8.23% and 13.1%.

What about the viability, T/C (compound 0.1 µM) of the same compound?
The viability, T/C was 4.17% and 2.77% and 2.12%.

And the viability, T/C (compound 0.316 µM)?
The viability, T/C was 2.96% and 2.39% and 3.6%.

And the viability, T/C (compound 1 µM)?
Its viability, T/C is 3.23% and 3.33% and 3.21%.

What about the viability, T/C (compound 3.16 µM) of the same compound?
Its viability, T/C is 4.11% and 2.94% and 3.73%.

And the viability, T/C (compound 10 µM)?
Its viability, T/C is 3.17% and 3.4% and 3.47%.

And the IC50 (curve of compound)?
The IC50 was under 31.6 nM.

How did the viability, T/C (compound 0.0316 µM) turn out when CC(=O)O[C@H]1C(=O)[C@@]2(C)[C@H]([C@H](OC(=O)c3ccccc3)[C@]3(O)C[C@H](OC(=O)[C@H](O)[C@@H](NC(=O)c4ccccc4)c4ccccc4)C(C)=C1C3(C)C)[C@]1(OC(C)=O)CO[C@@H]1C[C@@H]2O was run?
The viability, T/C was 79.3% and 9.94% and 12.2%.

And the viability, T/C (compound 0.316 µM)?
Its viability, T/C is 21.6% and 4.6% and 3.99%.

What about the viability, T/C (compound 1 µM) of the same compound?
The viability, T/C was 2.5% and 3.51% and 4.61%.

And the viability, T/C (compound 3.16 µM)?
The viability, T/C was 0.25% and 3.46% and 2.82%.

And the viability, T/C (compound 10 µM)?
The viability, T/C was 0.14% and 3.66% and 4.04%.

And the IC50 (curve of compound)?
The IC50 was 113 nM and < 31.6 nM.

With COc1cc(C2c3cc4c(cc3C(OC3OC5COC(C)OC5C(O)C3O)C3COC(=O)C23)OCO4)cc(OC)c1O (centres undefined) as the compound, how does the viability, T/C (compound 0.0316 µM) read?
Its viability, T/C is 100% and 98.3% and 90.5%.

And the viability, T/C (compound 0.1 µM)?
The viability, T/C was 97.9% and 98.6% and 88.2%.

What about the viability, T/C (compound 0.316 µM) of the same compound?
Its viability, T/C is 87.8% and 77.3% and 74.2%.

And the viability, T/C (compound 1 µM)?
Its viability, T/C is 43.1% and 30.2% and 27.2%.

And the viability, T/C (compound 3.16 µM)?
The viability, T/C was 15.4% and 11.7% and 11.3%.

And the viability, T/C (compound 10 µM)?
Its viability, T/C is 9.14% and 7.67% and 7.65%.

What about the IC50 (curve of compound) of the same compound?
Its IC50 is 843 nM and 618 nM and 573 nM.

Which results are given for C=CC(=O)N1CCN(c2nc(=O)n(-c3c(C)ccnc3C(C)C)c3nc(-c4c(O)cccc4F)c(F)cc23)C(C)C1 (centres undefined)?
viability, T/C (compound 0.0316 µM): 99% and 103% and 101%; viability, T/C (compound 0.1 µM): 91% and 94.9% and 108%; viability, T/C (compound 0.316 µM): 109% and 105% and 97.4%; viability, T/C (compound 1 µM): 109% and 98.9% and 95.3%; viability, T/C (compound 3.16 µM): 99.7% and 103% and 91.2%; viability, T/C (compound 10 µM): 96.4% (2×) and 95.7%; IC50 (curve of compound): > 10000 nM
